Laboratory results reported in patent US11136337B2, “Pyrazole- and indazole-substituted oxadiazolopyridine derivatives for use as ghrelin O-acyl transferase (GOAT) inhibitors” (Boehringer Ingelheim International GmbH, priority 2018, dated 2021).

Target: human GOAT (Homo sapiens (Human), UniProt Q96T53)
Assay: Determination of hGOAT activity in HEK293 cells after incubation with test compound (acyl-ghrelin ELISA)
Assay type: cell-based
Conditions: HEK293 cells stably expressing human GOAT and preproghrelin; 5 h incubation with octanoate-BSA; acyl-ghrelin in medium by ELISA
Method: Determination of hGOAT Activity in HEK293 Cells after Incubation with Test Compound
HEK293 cells stably transfected with two expression vectors, one coding for preproghrelin cDNA and a second for the expression of human GOAT cDNA are used as a cellular model. After feeding the cells with octanoic acid for 5 hours, acyl-ghrelin is measured in cell culture medium by an ELISA procedure.
Cellline: Hek293 hGOAT/PPGhrl Clone #1B8Sodium octanoate, Sigma, Cat.-No. C5038
BD Poly-D-Lysin 384-well Plates, black-clear polystyrene BD Bioscience Cat.-No. […] ELISA human acylated Ghrelin Kit purchased from Bertin Pharman (detailed composition of buffers e.g. wash-puffer, ELISA buffer not known)
Cells are plated with a density of 5000 cells/well in 384-well poly-D-lysin plates and incubated for 1 day at 37° C., 5% CO2 in DMEM medium, 10% FCS, 1×NEAA, Puromycin (0.5 μg/ml) and G418 (1 mg/ml). Then the medium is changed to a identical medium without FCS and containing Octanoate-BSA (final concentration 100 μM each) and compound in DMSO (final DMSO concentration 0.3%). After incubation for 5 hours acylghrelin in the medium is measured by ELISA.
The medium sample is diluted 1:25 in Elisa buffer, a 25 μl aliquot is transferred to a 384-well ELISA plate previously washed 4 times with 100 μL wash buffer, and 25 μl tracer-solution is added. After incubation overnight (˜20 h) at 4° C. temperature the plate is washed 4 times with 100 μl wash-buffer per well. Finally 50 μl Ellman's reagent is added to each well and the plate is incubated in the dark for 20 minutes. The absorbance is measured at 405 nm in an Envision multilabel reader and the amount of acylated ghrelin is calculated according to a acylated ghrelin standard curve provided in the same plate.
The analysis of the data is performed by calculation of the percentage of acyl-ghrelin produced in the presence of test compound compared to the amount of acyl-ghrelin produced in the vehicle control samples. An inhibitor of the GOAT enzyme will give values between 100% CTL (no inhibition) and 0% CTL (complete inhibition).
IC50 values are calculated with Assay Explorer or other suited software based on curve fitting of results of 8 different compound concentrations.

Sequence of human GOAT (Q96T53 whole entry): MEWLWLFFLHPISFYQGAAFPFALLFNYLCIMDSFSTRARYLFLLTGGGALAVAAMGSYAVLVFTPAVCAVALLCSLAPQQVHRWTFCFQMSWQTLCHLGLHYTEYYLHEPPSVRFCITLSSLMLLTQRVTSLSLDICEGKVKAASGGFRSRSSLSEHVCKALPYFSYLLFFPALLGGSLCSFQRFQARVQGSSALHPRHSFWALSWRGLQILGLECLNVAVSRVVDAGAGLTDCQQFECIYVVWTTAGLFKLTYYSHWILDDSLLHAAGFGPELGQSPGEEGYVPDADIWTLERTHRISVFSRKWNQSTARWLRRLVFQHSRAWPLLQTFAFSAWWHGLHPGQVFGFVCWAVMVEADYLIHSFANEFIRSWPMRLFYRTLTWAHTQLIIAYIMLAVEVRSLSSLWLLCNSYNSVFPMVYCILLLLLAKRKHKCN

IC50 [nM]	Structure (SMILES)
3.3	Cc1nc2nonc2c(N)c1Cn1cc(-c2cccc(S(C)(=O)=O)c2)c(C(F)(F)F)n1 [Example 3.1, 6-{[4-(3-Methanesulfonylphenyl)-3-(trifluoromethyl)-1H-pyrazol-1-yl]methyl}-5-methyl-[1,2,5]oxadiazolo[3,4-b]pyridin-7-amine]
1.2	Cc1nc2nonc2c(N)c1Cn1cc(-c2ccc(F)nc2)c(C(F)(F)F)n1 [Example 3.2]
2.6	Cc1nc2nonc2c(N)c1Cn1cc(-c2ccnn2C)c(C(F)(F)F)n1 [Example 3.3]
5.1	Cc1nc2nonc2c(N)c1Cn1cc(-c2cnn(C)c2)c(C(F)(F)F)n1 [Example 3.4]
0.034	Cc1nc2nonc2c(N)c1Cn1ccc(-c2cccnc2F)n1 [Example 4.1, 6-{[3-(2-Fluoropyridin-3-yl)-1H-pyrazol-1-yl]methyl}-5-methyl-[1,2,5]oxadiazolo[3,4-b]pyridin-7-amine]
0.11	Cc1nc2nonc2c(N)c1Cn1ccc(-c2c[nH]nc2C(F)(F)F)n1 [Example 4.2]
0.12	Cc1nc2nonc2c(N)c1Cn1ccc(-c2cncs2)n1 [Example 4.3]
0.29	Cc1nc2nonc2c(N)c1Cn1ccc(-c2c(C)noc2C)n1 [Example 4.4]
3.8	Cc1nc2nonc2c(N)c1Cn1ccc(-c2cnoc2)n1 [Example 4.5]
0.17	Cc1nc2nonc2c(N)c1Cn1ccc(-c2ccco2)n1 [Example 4.6]
0.37	Cc1nc2nonc2c(N)c1Cn1ccc(-c2cncn2C)n1 [Example 4.7]
0.096	Cc1nc2nonc2c(N)c1Cn1ccc(-c2cccc(S(C)(=O)=O)c2)n1 [Example 4.8]
0.04	Cc1nc2nonc2c(N)c1Cn1ccc(-c2nn(C)c3ccccc23)n1 [Example 4.9]
0.15	Cc1nc2nonc2c(N)c1Cn1ccc(-c2cnn3cccnc23)n1 [Example 4.10]
0.19	Cc1nc2nonc2c(N)c1Cn1ccc(-c2cn(C)c3ncccc23)n1 [Example 4.11]
0.076	Cc1nc2nonc2c(N)c1Cn1ccc(-c2ccc(S(C)(=O)=O)cc2F)n1 [Example 4.12]
0.38	Cc1nc2nonc2c(N)c1Cn1ccc(-c2ccc(C#N)c(F)c2)n1 [Example 4.13]
0.2	Cc1nc2nonc2c(N)c1Cn1ccc(-c2ccnn2C)n1 [Example 4.14]
5.6	Cc1nc2nonc2c(N)c1Cn1cc(-c2ccn[nH]2)cn1 [Example 4.15]
3.6	Cc1nc2nonc2c(N)c1Cn1cc(-c2cnn(C)c2)cn1 [Example 4.16]
0.028	Cc1nc2nonc2c(N)c1Cn1ccc(-c2cccc(C(F)(F)F)n2)n1 [Example 5.1, 5-Methyl-6-({3-[6-(trifluoromethyl)pyridin-2-yl]-1H-pyrazol-1-yl}methyl)-[1,2,5]oxadiazolo[3,4-b]pyridin-7-amine]
0.69	Cc1nc2nonc2c(N)c1Cn1cc2ccccc2n1 [Example 6.1, 6-[(2H-Indazol-2-yl)methyl]-5-methyl-[1,2,5]oxadiazolo[3,4-b]pyridin-7-amine]
0.84	Cc1nc2nonc2c(N)c1Cn1ccc(C(=O)N2CCC(F)(F)C2)n1 [Example 7.1, 6-{[3-(3,3-Difluoropyrrolidine-1-carbonyl)-1H-pyrazol-1-yl]methyl}-5-methyl-[1,2,5]oxadiazolo[3,4-b]pyridin-7-amine]
3.5	Cc1nc2nonc2c(N)c1Cn1ccc(C(=O)N2CCC(F)(F)CC2)n1 [Example 7.2]
5.1	Cc1nc2nonc2c(N)c1Cn1ccc(C(=O)N2CCC(O)(C(F)(F)F)C2)n1 (stereo not drawn) [Example 7.3]
3.2	Cc1nc2nonc2c(N)c1Cn1ccc(NC(=O)C(NC(=O)OCc2ccccc2)C(C)C)n1 (stereo not drawn) [Example 8.1, Benzyl N-(1-{[1-({7-amino-5-methyl-[1,2,5]oxadiazolo[3,4-b]pyridin-6-yl}methyl)-1H-pyrazol-3-yl]carbamoyl}-2-methylpropyl)carbamate]
7.4	Cc1nc2nonc2c(N)c1Cn1ccc(CN2CCC(F)(F)CC2)n1 [Example 9.1, 6-({3-[(4,4-Difluoropiperidin-1-yl)methyl]-1H-pyrazol-1-yl}methyl)-5-methyl-[1,2,5]oxadiazolo [3,4-b]pyridin-7-amine]

Second part, the compound before the results:

Structure (SMILES)	IC50 [nM]
CCOC(=O)c1cnn(Cc2c(C)nc3nonc3c2N)c1 [Example 1.1, Ethyl 1-({7-amino-5-methyl-[1,2,5]oxadiazolo[3,4-b]pyridin-6-yl}methyl)-1H-pyrazole-4-carboxylate]	1.7
Cc1nc2nonc2c(N)c1Cn1cc(-c2ccc(C#N)cc2)cn1 [Example 1.2]	1.6
Cc1nc2nonc2c(N)c1Cn1cc(-c2c(C)noc2C)cn1 [Example 1.3]	2.2
Cc1nc2nonc2c(N)c1Cn1cc(C(C)(C)C)cn1 [Example 1.4]	0.51
Cc1nc2nonc2c(N)c1Cn1cc(NC(=O)OC(C)(C)C)cn1 [Example 1.5]	3.3
COC(=O)c1ccn(Cc2c(C)nc3nonc3c2N)n1 [Example 1.6, Methyl 1-({7-amino-5-methyl-[1,2,5]oxadiazolo[3,4-b]pyridin-6-yl}methyl)-1H-pyrazole-3-carboxylate]	0.96
Cc1nc2nonc2c(N)c1Cn1cc(Br)c(C(F)(F)F)n1 [Example 1.7, 6-{[4-Bromo-3-(trifluoromethyl)-1H-pyrazol-1-yl]methyl}-5-methyl-[1,2,5]oxadiazolo[3,4-b]pyridin-7-amine]	0.6
Cc1nc2nonc2c(N)c1Cn1cc(C(F)(F)F)cn1 [Example 1.8]	1.4
Cc1nc2nonc2c(N)c1Cn1cc2cc(C#N)ccc2n1 [Example 1.9]	4.4
Cc1nc2nonc2c(N)c1Cn1ccc(-c2ccccc2F)n1 [Example 2.1, 6-{[3-(2-Fluorophenyl)-1H-pyrazol-1-yl]methyl}-5-methyl-[1,2,5]oxadiazolo[3,4-b]pyridin-7-amine]	0.035
Cc1nc2nonc2c(N)c1Cn1cc(-c2ccccc2F)cn1 [Example 2.2]	0.23
Cc1nc2nonc2c(N)c1Cn1nccc1-c1ccccc1F [Example 2.3]	0.28
Cc1nc2nonc2c(N)c1Cn1ccc(C=O)n1 [Example 2.4, 1-({7-amino-5-methyl-[1,2,5]oxadiazolo[3,4-b]pyridin-6-yl}methyl)-1H-pyrazole-3-carbaldehyde]	1.7
Cc1nc2nonc2c(N)c1Cn1ccc(N2CCCS2(=O)=O)n1 [Example 2.5]	0.18
Cc1nc2nonc2c(N)c1Cn1cc(Br)cn1 [Example 2.6]	4.4
